Measured values taken from publication PMC6663879, “Biochemical and structural investigations clarify the substrate selectivity of the 2-oxoglutarate oxygenase JMJD6” (The Journal of Biological Chemistry, 2019).
Read-outs that look alike come from different tables or passages of the source.

Key:
JMJD6^FL [1] = experiment: CPMG-edited NMR titration, apparent binding constant of 2OG; parameters: species or system human; conditions: CPMG-edited 1H NMR (700 MHz), 20 μM 2OG, 200 μM Zn(II), Tris-d11 pH 7.5, titrated with EDTA-treated JMJD6; mean ± S.D. (n = 3); read-out: 2OG KD^app
Method: (§1) 20 μM 2OG and 200 μM Zn(II) were mixed in deuterated Tris-d11, pH 7.5, and the ^1H NMR signals for 2OG were recorded at 700 MHz ([39]). […] Typically, a 5–10% error was allowed in the curve-fitting process.
(§2) CPMG displacement experiments used a Bruker AV700 NMR machine, as reported previously ([39]). The PROJECT (Periodic Refocusing of J Evolution by Coherence Transfer)-CPMG sequence (90°x − (τ − 180°y − τ − 90°y − τ − 180°y − τ)n − acquisition) was applied ([56]). […] Water suppression was achieved by presaturation ([57], [58]).

JMJD6^Δ344–403 [2] = experiment: as above; parameters: species or system human; conditions: CPMG-edited 1H NMR (700 MHz), 20 μM 2OG, 200 μM Zn(II), Tris-d11 pH 7.5, titrated with EDTA-treated JMJD6; mean ± S.D. (n = 3); read-out: 2OG KD^app
Method: as §1, §2

JMJD6^FL [3] = conditions: read-out: 2OG Km^app; standard hydroxylation assay conditions, 2OG varied 0–150 μM, 37 °C, HEPES-KOH pH 8.0; mean ± S.D. (n = 3)
Method: (§3) JMJD6 activity was assayed using a reaction mixture of 10 μM purified JMJD6 and 100 μM substrate peptide, at 37 °C in 50 mM HEPES-KOH, pH 8.0, buffer supplemented with 100 μM (NH4)2Fe(SO4)2·6H2O (Sigma), 400 μM L-sodium ascorbate (Sigma), and 500 μM disodium 2OG (Fluka). After 30 min, the reaction was quenched by an equal volume of 1% (v/v) aqueous formic acid (Sigma). In a 96-well MALDI plate (Waters), 0.8 μl of CHCA (α-cyano-4-hydroxycinnamic acid, Aldrich) ([…] in 0.1 ml of CHCA solvent) and 0.6 μl of the quenched mixture were placed in a well. After drying, the samples were analyzed by MALDI-TOF MS using a reported procedure ([59], [60]). The kinetic data obtained thereafter were fitted using GraphPad Prism (GraphPad Software) ([59], [60]).

JMJD6^Δ344–403 [4] = conditions: read-out: 2OG Km^app; standard hydroxylation assay conditions, 2OG varied 0–150 μM, 37 °C, HEPES-KOH pH 8.0; mean ± S.D. (n = 3)
Method: as §3

JMJD6^Δ363–403 [5] = target: T1, JMJD6^Δ363–403 (Homo sapiens, UniProt Q6NYC1); conditions: read-out: 2OG Km^app; standard hydroxylation assay conditions, 2OG varied 0–150 μM, 37 °C, HEPES-KOH pH 8.0; mean ± S.D. (n = 3)
Method: as §3

JMJD6^FL [6] = conditions: read-out: 2OG Km^app; reported for JMJD6^FL; ref Mantri et al. ([23]); cited from earlier work
JMJD6^Δ363–403 [7] = target: T1, JMJD6^Δ363–403; experiment: CPMG-edited NMR titration, apparent binding constant of 2OG; parameters: two more variants (aa 1–362, JMJD6^Δ363–403, and aa 1–343, JMJD6^Δ344–403); His6 (N); made in house; host or cells: Escherichia coli Rosetta2(DE3); conditions: CPMG-edited 1H NMR (700 MHz), 20 μM 2OG, 200 μM Zn(II), Tris-d11 pH 7.5, titrated with EDTA-treated JMJD6; mean ± S.D. (n = 3); read-out: 2OG KD^app
Method: as §1, §2

In the case of `O=C(O)CCC(=O)C(=O)O` [Peptide 2OG, 2-oxoglutarate], the Kd (JMJD6^FL [1]) is reported as 2300 ± 1600 nM, the Kd (JMJD6^Δ344–403 [2]) is reported as 3500 ± 2100 nM and the Km (JMJD6^FL [3]) is reported as 31 ± 5.3 µM. The Km (JMJD6^Δ344–403 [4]) was 45 ± 10 µM, the Km (JMJD6^Δ363–403 [5]) was 24 ± 5.4 µM and the Km (JMJD6^FL [6]) was 39 µM. For the same compound, the Kd (JMJD6^Δ363–403 [7]) was 3000 ± 4800 nM.
